Source: patent US10596127B2, “Composition for reducing the frequency of urination, method of making and use thereof” (WELLESLEY PHARMACEUTICALS, LLC, priority 2013, dated 2020)

Columns and labels:
[1] = system: IL-6 secretion by normal human bladder smooth muscle cells; test: IL-6 ELISA of normal human bladder smooth muscle cell supernatants; assay type: cell-based; settings: for IL-6 (pg/ml) Subject 1 / IL-6 (pg/ml) Subject 2: Carbachol 10^−3 M plus analgesic 50 μM; for IL-6 (pg/ml) Subject 1: carbachol alone 232, unstimulated <5, mean of duplicates; for IL-6 (pg/ml) Subject 2: carbachol alone 278, unstimulated <5; for effect on the effect of carbachol and LPS on IL-6 responses: LPS-induced responses: analgesic at either 5 μM or 50 μM
Method: Culture supernatants were subjected to cytokine-specific ELISA to determine IL-1β, IL-6 and TNF-α responses in cultures of macrophages treated with analgesic, LPS alone or a combination of LPS and analgesic. The assays were performed on Nunc MaxiSorp Immunoplates (Nunc) coated overnight with 100 μl of anti-mouse IL-6, TNF-α mAbs (BD Biosciences) or IL-1β mAb (R&D Systems) in 0.1 M sodium bicarbonate buffer (pH 9.5). After two washes with PBS (200 μl per well), 200 μl of PBS 3% BSA were added in each well (blocking) and the plates incubated for 2 hours at room temperature. Plates were washed again two times by addition of 200 μl per well, 100 μl of cytokine standards and serial dilutions of culture supernatants were added in duplicate and the plates were incubated overnight at 4° C. Finally, the plates were washed twice and incubated with 100 μl of secondary biotinylated anti-mouse IL-6, TNFα mAbs (BD Biosciences) or IL-1β (R&D Systems) followed by peroxidase-labelled goat anti-biotin mAb (Vector Laboratories). The colorimetric reaction was developed by the addition of 2,2′-azino-bis(3)-ethylbenzylthiazoline-6-sulfonic acid (ABTS) substrate and H2O2 (Sigma) and the absorbance measured at 415 nm with a Victor® V multilabel plate reader (PerkinElmer).
(§1) Normal human bladder smooth muscle cells were isolated by enzymatic digestion from macroscopically normal pieces of human bladder. Cells were expended in vitro by culture at 37° C. in a 5% CO2 atmosphere in RPMI 1640 supplemented with 10% fetal bovine serum, 15 mM HEPES, 2 mM L-glutamine, 100 U/ml penicillin, and […] of streptomycin and passage once a week by treatment with trypsin to detach cells followed by reseeding in a new culture flask. The first week of culture, the culture medium was supplemented with 0.5 ng/ml epidermal growth factor, 2 ng/ml fibroblast growth factor, and 5 μg/ml insulin.
Bladder smooth muscle cells trypsinized and seeded in microculture plates at a cell density of 3×10^4 cells per well in 100 μl were treated with analgesic solutions (50 μl/well) either alone or together carbachol (10-Molar, 50 μl/well), as an example of non-inflammatory stimuli, or lipopolysaccharide (LPS) of Salmonella typhimurium (1 μg/ml, 50 μl/well), as an example of […] stimuli. When no other effectors were added to the cells, 50 μl of RPMI 1640 without fetal bovine serum were added to the wells to adjust the final volume to 200 μl.
(§2) After 24 hours of culture, 150 μl of culture supernatants were collected, spun down for 2 min at 8,000 rpm at 4° C. to remove cells and debris and stored at −70° C. for analysis of Prostaglandin E2 (PGE2) responses by ELISA. Cells were fixed, permeabilized and blocked for detection of COX2 using a fluorogenic substrate. In selected experiment cells were stimulated 12 hours in vitro for analysis of COX2, PGE2 and cytokine responses.
(§3) COX2 and PGE2 responses were analyzed as described in Example 3. Cytokine responses were analyzed as described in Example 2.

[2] = system: TNFα secretion by normal human bladder smooth muscle cells; test: TNFα ELISA of normal human bladder smooth muscle cell supernatants; assay type: cell-based
[3] = system: PGE2 secretion by normal human bladder smooth muscle cells; test: PGE2 ELISA of normal human bladder smooth muscle cell supernatants; assay type: cell-based; settings: for effect on the LPS-induced PGE2 responses: analgesic at either 5 μM or 50 μM
Method: Prostaglandin E2 responses were analyzed by a sequential competitive ELISA (R&D Systems). More specifically, culture supernatants or PGE2 standards were added to the wells of a 96-well polystyrene microplate coated with a goat anti-mouse polyclonal antibody. After one hour incubation on a microplate shaker, an HRP-conjugated PGE2 was added and plates incubated for an additional two hours at room temperature. The plates were then washed and HRP substrate solution added to each well. The color was allowed to develop for 30 min and the reaction stopped by addition sulfuric acid before reading the plate at 450 nm with wavelength correction at 570 nm. Results are expressed as mean pg/ml of PGE2.
as §1
[…] When no other effectors were added to the cells, 50 μl of RPMI 1640 without fetal bovine serum were added to the wells to adjust the final volume to 200 μl.
as §2, §3

[4] = system: PGE2 secretion by mouse bladder cells; test: PGE2 ELISA of mouse bladder cell culture supernatants; assay type: cell-based; settings: for effect on the effect of LPS on PGE2 secretion: LPS (1 μg/ml), analgesic 5 or 50 μM
Method: Bladder cells were removed from euthanized animals C57BL/6 mice (8-12 weeks old) and cells were isolated by enzymatic digestion followed by purification on a Percoll gradient. […] Bladder slurries were enzymatically digested for 30 minutes at 37° C. Undigested fragments were further dispersed through a cell-trainer. The cell suspension was pelleted and added to a discontinue 20%, 40% and 75% Percoll gradient for purification on mononuclear cells. Each experiment used 50-60 bladders. […] Cells were cultured at 37° C. in a 5% CO2 atmosphere. Bladder cells were treated with analgesic solutions (50 well) either alone or together with carbachol (10-Molar, 50 μl/well), as an example of non-inflammatory stimuli, or lipopolysaccharide (LPS) of Salmonella typhimurium (1 μg/ml, 50 μl/well), as an example of […] stimuli. […] Cells were fixed, permeabilized and blocked for detection of Cyclooxygenase-2 (COX2) using a fluorogenic substrate. In selected experiment cells were stimulated 12 hours in vitro for analysis of COX2 responses […] More specifically, culture supernatants or PGE2 standards were added to the wells of a 96-well polystyrene microplate coated with a goat anti-mouse polyclonal antibody. After one hour incubation on a microplate shaker, an HRP-conjugated PGE2 was added and plates incubated for an additional two hours at room temperature. The plates were then washed and HRP substrate solution added to each well. The color was allowed to develop for 30 min and the reaction stopped by addition sulfuric acid before reading the plate at 450 nm with wavelength correction at 570 nm. Results are expressed as mean pg/ml of PGE2.

[5] = Inhibition of the urge to urinate in volunteer subjects; assay type: in vivo, human
Description: Twenty volunteer subjects, both male and female were enrolled, each of which experienced premature urge or desire to urinate, interfering with their ability to sleep for a sufficient period of time to feel adequately rested. […] At least 14 subjects reported that they were able to rest better because they were not being awakened as frequently by the urge to urinate.

[6] = LPS (10 μg/ml) plus analgesic 5 μM, LPS alone 4107
[7] = LPS (10 μg/ml) plus analgesic 5 μM, LPS alone 5725, mean of duplicates
[8] = LPS (10 μg/ml) plus analgesic 50 μM, LPS alone 4107
[9] = LPS (10 μg/ml) plus analgesic 50 μM, LPS alone 5725, mean of duplicates
[10] = Carbachol 10^−3 M plus analgesic 50 μM, carbachol alone 104, unstimulated <20.5
[11] = Carbachol 10^−3 M plus analgesic 50 μM, carbachol alone 129, unstimulated <20.5, mean of duplicates
[12] = LPS (10 μg/ml) plus analgesic 5 μM, LPS alone 998
[13] = LPS (10 μg/ml) plus analgesic 5 μM, LPS alone 1125, mean of duplicates
[14] = LPS (10 μg/ml) plus analgesic 50 μM, LPS alone 998
[15] = LPS (10 μg/ml) plus analgesic 50 μM, LPS alone 1125, mean of duplicates
[16] = LPS (1 μg/ml) plus analgesic 5 μM, LPS alone 925 ± 55, unstimulated <20.5
[17] = LPS (1 μg/ml) plus analgesic 50 μM, LPS alone 925 ± 55, unstimulated <20.5
[18] = stimulus alone, no analgesic (Carbachol 10^−3 M; LPS 10 μg/ml), unstimulated <5
[19] = stimulus alone, no analgesic (Carbachol 10^−3 M; LPS 10 μg/ml), unstimulated <20.5

SMILES	IL-6 (pg/ml) Subject 1 [1] [pg/mL]	IL-6 (pg/ml) Subject 2 [1] [pg/mL]	effect on the effect of carbachol and LPS on IL-6 responses [1]	TNFα (pg/ml) Subject 2 [2, 6] [pg/mL]	TNFα (pg/ml) Subject 1 [2, 7] [pg/mL]	TNFα (pg/ml) Subject 2 [2, 8] [pg/mL]	TNFα (pg/ml) Subject 1 [2, 9] [pg/mL]	PGE2 levels (pg/ml) Subject 2 [3, 10] [pg/mL]	PGE2 levels (pg/ml) Subject 1 [3, 11] [pg/mL]	PGE2 levels (pg/ml) Subject 2 [3, 12] [pg/mL]	PGE2 levels (pg/ml) Subject 1 [3, 13] [pg/mL]	PGE2 levels (pg/ml) Subject 2 [3, 14] [pg/mL]	PGE2 levels (pg/ml) Subject 1 [3, 15] [pg/mL]	effect on the LPS-induced PGE2 responses [3]	PGE2 levels [4, 16] [pg/mL]	PGE2 levels [4, 17] [pg/mL]	effect on the effect of LPS on PGE2 secretion [4]	further results
CC(=O)Nc1ccc(O)cc1 [Acetaminophen, N-acetyl-para-aminophenol]	119	135	suppress	2267	2338	2056	2184	62	76	542	817	540	803	suppress	619 ± 32	600 ± 45	suppressed	–
CC(=O)Oc1ccccc1C(=O)O [Aspirin, Acetylsalicylic acid]	95	146	suppress	2187	2479	2089	2266	59	89	598	838	534	812	suppress	588 ± 21	571 ± 53	suppressed	–
C[N+](C)(C)CCOC(N)=O [Carbachol, carbachol]	–	–	–	–	–	–	–	–	–	–	–	–	–	–	–	–	–	IL-6 responses to stimulus alone ([1]; no analgesic): induced low, but significant TNFα and IL-6 responses; TNFα (pg/ml) Subject 1 [2, 18]: 350 pg/mL; TNFα (pg/ml) Subject 2 [2, 18]: 286 pg/mL; PGE2 production in response to stimulus alone ([3]; no analgesic): induced production of PGE2; PGE2 levels (pg/ml) Subject 1 [3, 19]: 129 pg/mL; PGE2 levels (pg/ml) Subject 2 [3, 19]: 104 pg/mL; PGE2 levels ([4]; stimulus alone, no analgesic (LPS 1 μg/ml, Carbachol (mM)), unstimulated <20.5): <20.5 pg/mL; PGE2 levels (pg/ml) ([4]; stimulus alone, no analgesic (LPS 1 μg/ml, Carbachol (mM)), unstimulated <20.5, listed as carbachol): not detected
CC(C)Cc1ccc(C(C)C(=O)O)cc1 (stereo not shown) [Ibuprofen, ibuprofen]	107	118	suppress	2288	2733	1997	2603	73	84	527	824	501	821	suppress	593 ± 46	568 ± 32	suppressed	benefit of less frequent urges to urinate after several weeks of nightly use ([5]; several subjects): no longer being realized; benefit after several days of abstaining from taking the dosages ([5]; subjects who had lost the benefit): return of the benefit; subjects who reported that they were able to rest better because they were not being awakened as frequently by the urge to urinate ([5]; twenty volunteer subjects, 400-800 mg as a single dose prior to bedtime): At least 14 subjects
COc1ccc2cc([C@H](C)C(=O)O)ccc2c1 [Naproxen]	114	127	suppress	2215	2591	2192	2427	66	77	506	859	523	819	suppress	597 ± 19	588 ± 37	suppressed	–
